For one assay, the system named is S. aureus. Briefly: Blood culture time to positivity (flip time), bead rescue vs no-rescue control. It counts as cell-based. To be noted: for Flip time: Bead rescue; for Flip time in hours/mins: 2 h at 37° C.; for Time to positivity in days: 900 cfu/5 ml. The protocol:
An overnight culture of test organism was prepared in blood/broth medium (50:50 blood:broth medium from a BioMerieux SA culture bottle).
Ten-fold serial dilutions of overnight culture was prepared in blood/broth as required.
Antibiotic (abx) was added to whole human blood (in citrate-phosphate-dextrose, CPD, an anticoagulant) at required level.
Whole blood was used as the no-antibiotic control.
Test dilution(s) of organism was added to blood+antibiotic or blood only at 10 μL per mL of blood (sufficient prepared for experiment requirements). 100 μL plate count sample was taken (TO sample).
The inoculated samples were incubated at 37° C. (static) for 2-hour. 100 μL plate count sample was taken (T2 sample).
For the control, 5 mL of spiked blood+abx or blood only was added to blood culture bottles (BioMerieux SA culture bottle) using a vial adapter (West Pharmaceutical Services, Inc. PA, US) and incubated in the automated blood culture cabinet (adapter removed).
For the ‘rescue’ test, 5 mL of spiked blood+abx or blood only was treated with Momentum Capture Beads (Streptavidin-coated, −300 nm beads, Bio estapor, Merk Cat #BE-M 08/0.3) as below: • Momentum Capture Beads diluted in Detergent-free Microbial Binding Buffer (DMBB—Tris+NaCl)—50 μL beads:700 μL DMBB per clean-up • 750 μL of diluted beads added to 50 mL conical centrifuge tube • 5 mL of broth medium added to tube • 5 mL of spiked blood+abx or blood only added to tube • Incubate on ITL TherMix (Integrated Technologies Ltd. Kent, UK), 32.5° C./30 min/1000 rpm—ramped speed protocol • Magnetise on V&P magnet (V&P scientific Inc, CA, US) for 5 min then remove supernatant • Resuspend beads in 1 mL Detergent-free Wash Buffer (DWB—Tris+NaCl) off magnet and transfer to 2 mL Eppendorf flip-top tube on DynaMag-2 magnet (Thermo Fisher Scientific, Life Technologies Ltd. Paisley, UK) • Magnetise for 5 min then remove supernatant • Resuspend beads in 1 mL DWB off magnet then replace on DynaMag-2 magnet • Magnetise for 5 min then remove supernatant • Resuspend beads in 1 mL DWB, add to a fresh, unused blood culture bottle (BioMerieux SA culture bottle) containing standard blood culture growth medium using a vial adapter, and start incubation (adapter removed). • Blood culture bottles are incubated in the automated blood culture cabinet (BacT/ALERT BioMerieux) which records time to positivity. The “Flip” time is when a bottle turns positive as determined by the automated blood culture cabinet. • “Flip” time of each bottle is recorded. • Plate counts (Total Viable Count TVC) are recorded.
Day 1: Prepare overnight culture of test organism in blood/broth medium (50:50 blood:broth) and incubate at 37° C. in a shaking incubator.
Day 2: Prepare ten-fold serial dilution of overnight culture in blood/broth as required • Antibiotic added to whole blood (defibrinated horse blood) at required level • Whole blood as no-antibiotic control • Test dilution(s) of organism added to blood+antibiotic or blood only at 10 μL per mL of blood (sufficient prepared for experiment requirements) • 100 μL plate count sample taken (TO sample) • 2-hour incubation at 37° C. (static), to mimic organism exposure to antimicrobials in the patient • 100 μL plate count sample taken (T2 sample) • 5 mL of spiked blood+abx or blood only added to blood culture bottle (using vial adapter) and incubation started (adapter removed) • 5 mL of spiked blood+abx or blood only (from same source) treated with Momentum Capture Beads as below: • 1. Momentum Capture Beads diluted in Detergent-free Microbial Binding Buffer (DMBB)—50 μL beads:700 μL DMBB per clean-up • 2. 750 μL of diluted beads added to 50 mL conical centrifuge tube • 3. 5 mL of transfer medium added to tube • 4. 5 mL of spiked blood+abx or blood only added to tube • 5.

The test system of another assay is E. coli. The experiment in a line: Confirm PCR multiplex (microbial DNA, GrNeg channel) after microbial capture. It counts as cell-based. More on the design: key: Ct values (qPCR cycle threshold).

These results are taken from patent US20240210394A1, “MICROORGANISM CAPTURE FROM ANTIMICROBIAL-CONTAINING SOLUTION” (MOMENTUM BIOSCIENCE LIMITED, priority 2019, published 2024).

Several values for one entry are separate records, joined by “and”; a condition that tells them apart may be missing. Identical values can stand only once.

For `CCN1CCN(C(=O)N[C@@H](C(=O)N[C@@H]2C(=O)N3[C@@H]2SC(C)(C)[C@@H]3C(=O)O)c2ccccc2)C(=O)C1=O` [Piperacillin], the “Flip time” value in the assay on S. aureus (Piperacillin 96 ug/mL blood, CPD human blood, 750 cfu/5 mL) was 0.62 days; in the assay on S. aureus (Piperacillin 96 ug/mL blood, CPD human blood, 5000 cfu/5 mL) it was 0.57 days; in the assay with S. aureus (Piperacillin 96 ug/mL blood, defibrinated horse blood, 5000 cfu/5 ml) it was 0.78 days; in the assay with S. aureus (Piperacillin 96 ug/mL blood, defibrinated horse blood, 50000 cfu/5 ml), 0.65 days; in the assay on S. aureus (S. aureus spike dil 10-3, Piperacillin 96 ug/ml human blood, SA bottle), 0.57 days; in the assay with S. aureus (S. aureus spike dil 10-4, Piperacillin 96 ug/ml human blood, SA bottle), 0.62 days. The “Flip time in Days” value in the assay with S. aureus (Control (no bead rescue), Piperacillin 96 ug/mL blood, CPD human blood, 750 cfu/5 mL) is “Neg”; in the assay on S. aureus (Control (no bead rescue), Piperacillin 96 ug/mL blood, CPD human blood, 5000 cfu/5 mL), “Neg”; in the assay on S. aureus (Control (no bead rescue), Piperacillin 96 ug/mL blood, defibrinated horse blood, 5000 cfu/5 ml) it was “Neg”; in the assay with S. aureus (Control (no bead rescue), Piperacillin 96 ug/mL blood, defibrinated horse blood, 50000 cfu/5 ml), “Neg”; with S. aureus (No bead rescue Control BC, Piperacillin 96 ug/mL blood, 10000 cfu/5 mL), “Neg”; with S. aureus (No bead rescue Control BC, Piperacillin 96 ug/mL blood, 50000 cfu/5 mL), “Neg”. In addition, the “Flip time in hours/mins” value with S. aureus (Control (no bead rescue), S. aureus spike dil 10-3, Piperacillin 96 ug/ml human blood, SA bottle) was “Negative at 120 h”; in the assay on S. aureus (Control (no bead rescue), S. aureus spike dil 10-4, Piperacillin 96 ug/ml human blood, SA bottle), “Negative at 120 h”. For the same molecule, the “Time to positivity in days” value is given as “Neg” with S. aureus (Piperacillin 96 ug/mL blood, Control (no beads)) and “Neg” in the assay with S. aureus (Piperacillin 96 ug/mL blood, with magnetic beads in the bottle).

On to Sodium polyanethol sulfonate [SPS], for which the “Confirm GrNeg results” value in the assay with E. coli (WB SPS 0.01 %, EC 1-3 replicates) is 27.94 and 29.18 and 28.32; with E. coli (WB SPS 0.01 %, NSC 1-3 replicates), “NoCt”; in the assay with E. coli (WB SPS 0.02 %, EC 1-3 replicates), 29.15 and 28.16 and 29.75; in the assay on E. coli (WB SPS 0.02 %, NSC 1-3 replicates), “NoCt”; in the assay on E. coli (WB SPS 0.04 %, EC 1-3 replicates), 28.71 and 28.75 and 29.82; in the assay with E. coli (WB SPS 0.04 %, NSC 1-3 replicates), “NoCt”. Further, the “Confirm GrNeg results” value in the assay with E. coli (WB SPS 0.06 %, EC 1-3 replicates) was 31.58 and 29.77 and 29.26; in the assay on E. coli (WB SPS 0.06 %, NSC 1-3 replicates) it was “NaCt and NoCt (2×)”; in the assay with E. coli (WB SPS 0.08 %, EC 1-3 replicates) it was 29.20 and 29.80 and 28.87; in the assay on E. coli (WB SPS 0.08 %, NSC 1-3 replicates) it was “NoCt”; with E. coli (WB SPS 0.1 %, EC 1-3 replicates), 29.27 and 28.65 and 29.61; with E. coli (WB SPS 0.1 %, NSC 1-3 replicates), 47.82 and NoCt (2×).
